Laboratory results: ChEMBL document CHEMBL5335787, “Fragment-based and structure-guided discovery of perforin inhibitors” (Eur J Med Chem, 2023)

Experiments:
[1] = biological target: T1, Perforin-1 (Homo sapiens) (UniProt P14222); assay: Inhibition of perforin-dependent cell killing activity of human KHYG-1 cells assessed as reduction in cytotoxicity against K562 cells preincubated for 20 mins followed by 51Cr labelled K562 cells addition and measured after 4 hrs by gamma counter analysis; type: cell-based; settings: time 260.0 min
T1 sequence (whole entry): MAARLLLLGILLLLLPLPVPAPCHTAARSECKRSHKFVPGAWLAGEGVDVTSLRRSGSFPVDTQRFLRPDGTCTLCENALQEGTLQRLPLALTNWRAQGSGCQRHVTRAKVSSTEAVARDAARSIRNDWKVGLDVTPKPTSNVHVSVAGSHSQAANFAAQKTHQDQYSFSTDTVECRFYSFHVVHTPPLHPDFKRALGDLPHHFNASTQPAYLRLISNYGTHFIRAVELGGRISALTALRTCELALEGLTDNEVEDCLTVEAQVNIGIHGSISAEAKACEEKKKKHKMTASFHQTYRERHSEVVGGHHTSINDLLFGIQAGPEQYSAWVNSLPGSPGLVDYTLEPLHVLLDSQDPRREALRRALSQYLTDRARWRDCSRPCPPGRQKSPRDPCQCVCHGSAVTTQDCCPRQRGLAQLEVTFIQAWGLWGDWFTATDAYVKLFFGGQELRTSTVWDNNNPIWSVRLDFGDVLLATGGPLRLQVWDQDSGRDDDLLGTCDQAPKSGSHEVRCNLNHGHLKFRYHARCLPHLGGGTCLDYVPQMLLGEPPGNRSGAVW

[2] = Cytotoxicity against human KHYG-1 cells assessed as cell viability at 1 uM measured after 24 hrs by trypan blue staining based analysis relative to control; type: toxicity; settings: read-out: Activity
[3] = Cytotoxicity against human KHYG-1 cells assessed as cell viability at 0.38 uM measured after 24 hrs by trypan blue staining based analysis relative to control; type: toxicity; settings: read-out: Activity
[4] = biological target: T2, Perforin-1 (Mus musculus) (UniProt P10820); assay: Binding affinity to recombinant mouse perforin expressed in baculovirus-infected Sf21 cells assessed as change in chemical shift by 19F NMR assay
T2 sequence (whole entry): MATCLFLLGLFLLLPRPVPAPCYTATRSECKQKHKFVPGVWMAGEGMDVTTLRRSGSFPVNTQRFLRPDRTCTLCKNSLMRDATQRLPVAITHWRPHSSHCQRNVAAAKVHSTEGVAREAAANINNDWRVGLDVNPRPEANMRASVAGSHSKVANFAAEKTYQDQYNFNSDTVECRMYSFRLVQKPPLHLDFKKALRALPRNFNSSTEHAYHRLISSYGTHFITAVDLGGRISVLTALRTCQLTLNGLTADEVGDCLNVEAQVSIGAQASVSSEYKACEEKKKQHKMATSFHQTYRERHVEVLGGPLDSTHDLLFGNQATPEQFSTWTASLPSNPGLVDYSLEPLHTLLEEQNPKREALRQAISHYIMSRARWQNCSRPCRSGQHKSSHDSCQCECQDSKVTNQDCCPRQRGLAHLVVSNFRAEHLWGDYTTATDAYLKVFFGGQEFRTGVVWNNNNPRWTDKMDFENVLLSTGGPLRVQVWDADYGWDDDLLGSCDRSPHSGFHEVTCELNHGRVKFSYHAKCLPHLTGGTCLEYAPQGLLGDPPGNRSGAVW

[5] = biological target: T1, Perforin-1 (Homo sapiens); assay: Inhibition of perforin-dependent cell killing activity of human KHYG-1 cells assessed as reduction in cytotoxicity against K562 cells at 100 uM preincubated for 20 mins followed by 51Cr labelled K562 cells addition and measured after 4 hrs by gamma counter analysis relative to control; type: cell-based; settings: time 260.0 min
HepG2 = assay: Cytotoxicity against human HepG2 cells assessed as reduction in cell viability at 0.001 to 100 uM incubated for 5 days by SRB assay; type: toxicity, cell-based; settings: hepg2, 120 h, dose 0.001-100 µM, time 5 day
Perforin-1 [6] = biological target: T3, Perforin-1 (Mus musculus, UniProt P10820); assay: Binding affinity to lipid-coated L1 chip immobilised recombinant mouse perforin expressed in baculovirus-infected Sf21 cells by SPR analysis
T3 sequence (P10820 whole entry): T2 sequence (whole entry)

Perforin-1 [7] = biological target: T3, Perforin-1; assay: Binding affinity to CM5 chip immobilised recombinant mouse perforin expressed in baculovirus-infected Sf21 cells by SPR analysis
[8] = Cytotoxicity against human KHYG-1 cells assessed as cell viability at 0.24 uM measured after 24 hrs by trypan blue staining based analysis relative to control; type: toxicity; settings: read-out: Activity

| SMILES | IC90 [1] [nM] | viability at 24 h, 1 µM [2] [%] | further results |
| --- | --- | --- | --- |
| Cc1ccc(S(=O)(=O)c2ccc(N)cc2)cc1-c1cnc(N)nc1 | 3400 | – | – |
| Cc1cc(S(=O)(=O)c2ccc(C)c(-c3cnc(N)nc3)c2)ccc1C(N)=O | 155 | > 85 | – |
| Cc1ccc(S(=O)(=O)c2ccc3c(c2)CCN3C)cc1-c1cnc(N)nc1 | 406 | > 85 | – |
| Cc1cc(C(=O)Nc2ccc(C)c(-c3cnc(N)nc3)c2)ccc1N | > 30000 | > 85 | – |
| Cc1ccc(S(=O)(=O)c2ccc3c(c2)CCN3)cc1-c1cnc2n[nH]cc2c1 | 40 | 56 | viability at 24 h, 0.38 µM [3]: 97% |
| CCNc1ccc(S(=O)(=O)c2ccc(C)c(-c3cnc(N)nc3)c2)c(C(F)(F)F)c1 | 31 | – | Activity [4]: 14.5 Hz |
| Nc1ccc(S(=O)(=O)c2ccc(N)cc2)cc1 [DAPSONE] | > 100000 | – | inhibition [5]: 65%; Activity (HepG2): Non-Toxic |
| Cc1ccc(S(=O)(=O)c2ccc(N)cc2)cc1-c1cccnc1 | 43000 | – | – |
| Cc1cc(S(=O)(=O)c2ccc3c(c2)CCN3)ccc1-c1cnc(N)nc1 | > 3000 | > 85 | – |
| Cc1ccc(S(=O)(=O)c2ccc3[nH]ccc3c2)cc1-c1cnc(N)nc1 | 496 | > 85 | – |
| Cc1ccc(S(=O)(=O)c2ccc3c(c2)CCN3)cc1-c1ccc(N)nc1 | 361 | > 85 | – |
| Cc1ccc(S(=O)(=O)c2ccc3c(c2)CCN3)cc1-c1cnc(N)nc1 | 30 | > 85 | Activity (HepG2): Non-Toxic; Kd (Perforin-1 [6]): ~200 nM; Kd (Perforin-1 [7]): 85000 nM |
| Cc1ccc(S(=O)(=O)c2ccc3c(c2)CCN3)cc1-c1ccc2n[nH]cc2c1 | 1040 | > 85 | – |
| Cc1cc(NS(=O)(=O)c2ccc(C)c(-c3cnc(N)nc3)c2)ccc1N | 2290 | > 85 | – |
| Cc1ccc(S(=O)(=O)c2ccc3c(c2)CNC3=O)cc1-c1cnc(N)nc1 | 199 | > 85 | – |
| Cc1cc(S(=O)(=O)c2ccc(C)c(-c3cnc(N)nc3)c2)c(C(F)(F)F)cc1N | 203 | – | Activity [4]: 7.6 Hz |
| Cc1ccc(S(=O)(=O)c2ccc3[nH]ncc3c2)cc1-c1cnc(N)nc1 | 281 | > 85 | – |
| Cc1ccc(NS(=O)(=O)c2ccc(N)cc2C(F)(F)F)cc1-c1cnc(N)nc1 | 1900 | – | Activity [4]: 5.5 Hz |
| Cc1ccc(S(=O)(=O)c2ccc3c(c2)CCNC3=O)cc1-c1cnc(N)nc1 | 40 | > 85 | – |
| CNC(=O)Nc1ccc(-c2cc(S(=O)(=O)c3ccc4c(c3)CCN4)ccc2C)cc1 | 4460 | > 85 | – |
| Cc1cc(S(=O)(=O)c2ccc(C)c(-c3cnc(N)nc3)c2)ccc1N | 169 | > 85 | Kd (Perforin-1 [6]): ~200 nM; Kd (Perforin-1 [7]): 110000 nM |
| Cc1cc(C(N)=O)cc(S(=O)(=O)c2ccc(C)c(-c3cnc(N)nc3)c2)c1 | 29 | – | viability at 24 h, 0.24 µM [8]: 64% |
| Cc1ccc(S(=O)(=O)c2ccc(N)cc2C(F)(F)F)cc1-c1cnc(N)nc1 | 21 | – | Activity [4]: 13.2 Hz |
| Cc1cc(NC(=O)c2ccc(C)c(-c3cnc(N)nc3)c2)ccc1N | > 30000 | > 85 | – |
| Nc1ccc(S(=O)(=O)c2cccc(-c3cnc(N)nc3)c2)c(C(F)(F)F)c1 | 131 | – | Activity [4]: 8.5 Hz |
| Cc1cc2c(cc1-c1cnc(N)nc1)S(=O)(=O)c1ccc(C(N)=O)cc1CC2C (stereo not drawn) | 40 | 76 | – |
| Cc1ccc(S(=O)(=O)c2ccc3c(c2)CCO3)cc1-c1cnc(N)nc1 | 160 | > 85 | – |
| Cc1cc(S(=O)(=O)Nc2ccc(C)c(-c3cnc(N)nc3)c2)ccc1N | 70 | > 85 | – |
| Cc1ccc(NS(=O)(=O)c2ccc3c(c2)CCN3)cc1-c1cnc(N)nc1 | 33 | > 85 | – |
